ChEMBL document CHEMBL3886525, “Pyrazolo[3,4-c]pyridine compounds and methods of use” (2016)

Each compound was assayed against Serine/threonine-protein kinase pim-1 (Homo sapiens, UniProt P11309) (assay: A fluorescent-labeled Pim-specific peptide substrate, was custom synthesized by American Peptide Company (Sunnyvale, Calif.). Reaction Buffer contained 10 mM HEPES, pH 7.2, 10 mM MgCl2, 0.01% Tween 20, 2 mM DTT.).
Chain of Serine/threonine-protein kinase pim-1 (P11309 whole entry): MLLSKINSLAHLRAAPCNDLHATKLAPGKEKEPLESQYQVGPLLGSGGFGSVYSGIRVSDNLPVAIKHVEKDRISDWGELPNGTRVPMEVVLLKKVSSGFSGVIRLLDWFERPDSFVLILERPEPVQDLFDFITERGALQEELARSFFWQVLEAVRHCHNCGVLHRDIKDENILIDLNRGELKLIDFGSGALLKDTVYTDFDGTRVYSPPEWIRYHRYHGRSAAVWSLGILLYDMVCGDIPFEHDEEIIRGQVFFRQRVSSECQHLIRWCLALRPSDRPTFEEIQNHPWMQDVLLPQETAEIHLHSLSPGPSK

| SMILES | Ki [nM] |
| --- | --- |
| c1ccc(-c2n[nH]c3cnc(-c4cccnc4)cc23)cc1 | 9.65 |
| Fc1ccccc1-c1n[nH]c2cnc(-c3cccnc3)cc12 | 122 |
| CCn1cc(-c2cc3c(-c4ccc(=O)n(CC5(C(N)=O)CC5)c4)n[nH]c3cn2)cn1 | 1.41 |
| Cc1n[nH]c2cnc(-c3cccc(F)c3)cc12 | 2200 |

Stronger by Ki, values ahead:

| Ki [nM] | SMILES |
| --- | --- |
| 0.118 | N[C@@H]1CCN(c2nc(-c3n[nH]c4cnc(-c5cccnc5)cc34)ccc2Br)C1 |
| 0.415 | c1cncc(-c2cc3c(-c4cccc(N5CCCCC5)n4)n[nH]c3cn2)c1 |
| 0.262 | c1cncc(-c2cc3c(-c4cccc(N5CCOCC5)n4)n[nH]c3cn2)c1 |
